Consider 1 molecule from ChEMBL document CHEMBL1649167, “Serial plasma voriconazole concentrations after allogeneic hematopoietic stem cell transplantation” (Antimicrob Agents Chemother, 2009).

The series in a line: Plasma concentration in po dosed patient after 6 days by HPLC analysis. Type of series: ADME, organism-based. Conditions: human.

Some results are limits rather than exact numbers.

The molecule `C[C@@H](c1ncncc1F)[C@](O)(Cn1cncn1)c1ccc(F)cc1F` [VORICONAZOLE] came in with a concentration at 144 h of under 120 ng/mL.
